Earlier results on 1 compound are cited in patent US20100209348A1, “METHODS FOR DETERMINING LIPOSOME BIOEQUIVALENCE” (Arondo Pharma, Inc., priority 2009, published 2010).

Molecules are shown by their SMILES. Counter-ions that a name gives are not always drawn.

The conditions of the data set: IV infusion up to 60 min, up to 60 mg/m^2 every 3 weeks (dose rate 20 mg/m^2/week).

As for `COc1cccc2c1C(=O)c1c(O)c3c(c(O)c1C2=O)C[C@@](O)(C(=O)CO)C[C@@H]3O[C@H]1C[C@H](N)[C@H](O)[C@H](C)O1` [doxorubicin, Doxorubicin HCl], the “clinically significant PPE” value is “does not typically cause clinically significant PPE”.
